# Results published in US10870647B2, “Imidazopyridine derivative, method for preparing same, and pharmaceutical composition containing same as active ingredient for preventing or treating cancer” (DAEGU-GYEONGBUK MEDICAL INNOVATION FOUNDATION, priority 2016, dated 2020).
# What was measured:
# Experiment in all cases: Kinase selectivity, scanMAX Kinase assay panel (DiscoverX), % control at 1 uM
# Format in all cases: binding
# [1] = molecular target: T1, scanMAX Kinase assay panel (Homo sapiens, UniProt P14616); details: INSRR; 1 uM; read-out: Percent Control (%)
# T1 construct: purchased DiscoverX
# T1 sequence (P14616 27-1297): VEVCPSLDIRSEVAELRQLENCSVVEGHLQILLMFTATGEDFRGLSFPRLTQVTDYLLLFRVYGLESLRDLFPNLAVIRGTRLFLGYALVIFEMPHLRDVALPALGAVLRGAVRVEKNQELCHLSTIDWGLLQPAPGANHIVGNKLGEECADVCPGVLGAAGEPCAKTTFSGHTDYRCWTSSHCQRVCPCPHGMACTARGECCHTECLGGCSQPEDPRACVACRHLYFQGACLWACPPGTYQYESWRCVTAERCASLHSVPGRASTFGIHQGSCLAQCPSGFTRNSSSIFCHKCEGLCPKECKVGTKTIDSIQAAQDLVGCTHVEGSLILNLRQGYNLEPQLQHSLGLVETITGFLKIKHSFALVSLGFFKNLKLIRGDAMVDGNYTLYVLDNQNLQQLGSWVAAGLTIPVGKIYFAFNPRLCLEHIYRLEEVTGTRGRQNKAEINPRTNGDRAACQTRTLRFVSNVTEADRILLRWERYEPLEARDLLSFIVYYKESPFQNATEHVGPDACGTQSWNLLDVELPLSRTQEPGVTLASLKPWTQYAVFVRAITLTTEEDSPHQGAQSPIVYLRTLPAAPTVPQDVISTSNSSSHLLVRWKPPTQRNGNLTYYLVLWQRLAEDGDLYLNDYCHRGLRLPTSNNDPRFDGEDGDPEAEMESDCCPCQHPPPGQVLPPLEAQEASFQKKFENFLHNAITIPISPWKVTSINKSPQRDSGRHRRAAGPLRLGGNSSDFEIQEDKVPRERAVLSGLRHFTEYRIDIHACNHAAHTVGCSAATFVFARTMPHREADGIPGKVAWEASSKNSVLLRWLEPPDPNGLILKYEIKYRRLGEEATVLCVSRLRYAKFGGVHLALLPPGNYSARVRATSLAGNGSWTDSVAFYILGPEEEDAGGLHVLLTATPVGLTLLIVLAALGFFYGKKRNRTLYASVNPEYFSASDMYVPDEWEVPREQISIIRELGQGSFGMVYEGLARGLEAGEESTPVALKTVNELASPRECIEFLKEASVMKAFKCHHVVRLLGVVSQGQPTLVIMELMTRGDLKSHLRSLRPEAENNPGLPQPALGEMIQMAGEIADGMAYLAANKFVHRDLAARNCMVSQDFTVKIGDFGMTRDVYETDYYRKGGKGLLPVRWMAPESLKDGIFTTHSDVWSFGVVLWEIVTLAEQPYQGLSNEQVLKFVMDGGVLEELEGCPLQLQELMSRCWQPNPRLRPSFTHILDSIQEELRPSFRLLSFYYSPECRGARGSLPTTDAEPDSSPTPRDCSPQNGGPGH
# Summary of the method: (§1)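 Read-out is percent of control, derived from the signal with compound relative to positive and negative controls: (compound − positive)/(negative − positive) × 100. Each enzyme received test drug at 1 uM in DMSO, and values under 35% count as active.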
# [2] = molecular target: T2, scanMAX Kinase assay panel (Homo sapiens, UniProt P36888, K663Q); details: FLT3 (K663Q); 1 uM; read-out: Percent Control (%)
# T2 construct: purchased DiscoverX
# T2 sequence (P36888 27-993 K663Q): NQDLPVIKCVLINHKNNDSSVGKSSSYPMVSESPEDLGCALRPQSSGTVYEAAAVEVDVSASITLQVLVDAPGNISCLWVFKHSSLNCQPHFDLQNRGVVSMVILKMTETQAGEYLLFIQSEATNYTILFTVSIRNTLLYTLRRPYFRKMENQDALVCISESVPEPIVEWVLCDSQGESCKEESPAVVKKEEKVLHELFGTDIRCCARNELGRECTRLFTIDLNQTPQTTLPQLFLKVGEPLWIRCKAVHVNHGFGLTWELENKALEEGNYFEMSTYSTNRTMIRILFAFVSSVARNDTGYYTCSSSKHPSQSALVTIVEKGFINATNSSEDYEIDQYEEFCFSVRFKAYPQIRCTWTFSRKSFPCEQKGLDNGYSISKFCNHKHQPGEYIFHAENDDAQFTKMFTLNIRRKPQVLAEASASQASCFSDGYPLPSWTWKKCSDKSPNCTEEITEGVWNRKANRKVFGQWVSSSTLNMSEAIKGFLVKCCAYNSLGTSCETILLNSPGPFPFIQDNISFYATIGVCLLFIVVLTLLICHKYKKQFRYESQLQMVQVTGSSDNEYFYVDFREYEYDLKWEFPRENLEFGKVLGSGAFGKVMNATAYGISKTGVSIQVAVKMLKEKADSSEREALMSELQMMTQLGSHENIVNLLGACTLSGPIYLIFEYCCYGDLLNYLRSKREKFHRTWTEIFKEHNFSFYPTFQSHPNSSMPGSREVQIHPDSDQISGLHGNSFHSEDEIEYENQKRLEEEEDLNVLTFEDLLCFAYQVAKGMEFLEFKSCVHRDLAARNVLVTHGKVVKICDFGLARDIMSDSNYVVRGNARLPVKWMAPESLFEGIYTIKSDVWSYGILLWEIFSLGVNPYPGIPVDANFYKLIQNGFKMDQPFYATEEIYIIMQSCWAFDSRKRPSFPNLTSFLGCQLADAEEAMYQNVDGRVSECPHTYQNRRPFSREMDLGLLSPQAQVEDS
# Summary of the method: as §1
# [3] = molecular target: T3, scanMAX Kinase assay panel (Homo sapiens, UniProt Q8N5S9); details: CAMKK1; 1 uM; read-out: Percent Control (%)
# T3 construct: purchased DiscoverX
# T3 sequence (Q8N5S9 whole entry): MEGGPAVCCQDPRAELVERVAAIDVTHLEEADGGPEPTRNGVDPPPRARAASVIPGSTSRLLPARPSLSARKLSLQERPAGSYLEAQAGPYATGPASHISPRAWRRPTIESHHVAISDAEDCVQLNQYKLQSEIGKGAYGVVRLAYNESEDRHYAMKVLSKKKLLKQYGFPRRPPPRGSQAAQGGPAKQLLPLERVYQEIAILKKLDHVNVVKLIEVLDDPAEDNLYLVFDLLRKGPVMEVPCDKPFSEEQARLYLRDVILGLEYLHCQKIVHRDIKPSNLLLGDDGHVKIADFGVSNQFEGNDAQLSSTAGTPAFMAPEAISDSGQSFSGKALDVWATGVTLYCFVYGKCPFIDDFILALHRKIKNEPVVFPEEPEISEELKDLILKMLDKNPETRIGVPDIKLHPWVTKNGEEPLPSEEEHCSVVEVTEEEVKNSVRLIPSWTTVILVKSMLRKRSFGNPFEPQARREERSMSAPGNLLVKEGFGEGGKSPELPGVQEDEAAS
# Summary of the method: as §1
# [4] = molecular target: T4, scanMAX Kinase assay panel (Homo sapiens, UniProt Q8WU08); details: YANK1; 1 uM; read-out: Percent Control (%)
# T4 construct: purchased DiscoverX
# T4 sequence (Q8WU08 whole entry): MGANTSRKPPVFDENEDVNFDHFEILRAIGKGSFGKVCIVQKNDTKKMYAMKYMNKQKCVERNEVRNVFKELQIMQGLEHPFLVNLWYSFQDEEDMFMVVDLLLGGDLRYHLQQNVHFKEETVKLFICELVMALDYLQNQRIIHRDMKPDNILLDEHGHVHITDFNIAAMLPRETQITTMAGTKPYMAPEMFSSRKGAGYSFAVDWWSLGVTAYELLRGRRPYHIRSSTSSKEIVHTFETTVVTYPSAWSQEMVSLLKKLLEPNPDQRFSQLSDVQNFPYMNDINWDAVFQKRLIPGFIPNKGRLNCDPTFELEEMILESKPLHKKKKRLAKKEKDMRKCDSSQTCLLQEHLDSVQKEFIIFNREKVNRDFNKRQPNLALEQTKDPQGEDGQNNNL
# Summary of the method: as §1
# [5] = molecular target: T5, scanMAX Kinase assay panel (Homo sapiens, UniProt Q96L34); details: MARK4; 1 uM; read-out: Percent Control (%)
# T5 construct: purchased DiscoverX
# T5 sequence (Q96L34 1-752): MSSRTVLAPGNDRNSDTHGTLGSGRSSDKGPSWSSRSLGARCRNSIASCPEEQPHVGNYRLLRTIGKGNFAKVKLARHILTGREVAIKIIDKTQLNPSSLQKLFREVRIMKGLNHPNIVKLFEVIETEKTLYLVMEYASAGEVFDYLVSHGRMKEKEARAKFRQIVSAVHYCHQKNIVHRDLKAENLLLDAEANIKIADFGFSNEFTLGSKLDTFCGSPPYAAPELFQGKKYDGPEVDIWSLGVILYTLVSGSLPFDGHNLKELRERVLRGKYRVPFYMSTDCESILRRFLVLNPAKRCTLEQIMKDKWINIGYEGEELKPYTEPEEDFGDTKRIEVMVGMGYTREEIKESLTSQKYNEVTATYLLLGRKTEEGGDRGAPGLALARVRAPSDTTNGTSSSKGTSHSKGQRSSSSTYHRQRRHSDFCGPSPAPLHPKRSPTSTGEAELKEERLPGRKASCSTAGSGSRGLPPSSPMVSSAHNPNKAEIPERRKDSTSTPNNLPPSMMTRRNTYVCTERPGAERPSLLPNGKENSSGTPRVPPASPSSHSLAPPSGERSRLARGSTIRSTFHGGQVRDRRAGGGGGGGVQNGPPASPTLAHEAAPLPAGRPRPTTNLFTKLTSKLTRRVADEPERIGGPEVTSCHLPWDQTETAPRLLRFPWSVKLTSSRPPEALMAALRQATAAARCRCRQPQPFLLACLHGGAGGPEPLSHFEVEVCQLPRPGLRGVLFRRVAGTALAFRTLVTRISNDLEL
# Summary of the method: as §1
# [6] = molecular target: T6, scanMAX Kinase assay panel (Homo sapiens, UniProt Q9BRS2); details: RIOK1; 1 uM; read-out: Percent Control (%)
# T6 construct: purchased DiscoverX
# T6 sequence (Q9BRS2 1-568): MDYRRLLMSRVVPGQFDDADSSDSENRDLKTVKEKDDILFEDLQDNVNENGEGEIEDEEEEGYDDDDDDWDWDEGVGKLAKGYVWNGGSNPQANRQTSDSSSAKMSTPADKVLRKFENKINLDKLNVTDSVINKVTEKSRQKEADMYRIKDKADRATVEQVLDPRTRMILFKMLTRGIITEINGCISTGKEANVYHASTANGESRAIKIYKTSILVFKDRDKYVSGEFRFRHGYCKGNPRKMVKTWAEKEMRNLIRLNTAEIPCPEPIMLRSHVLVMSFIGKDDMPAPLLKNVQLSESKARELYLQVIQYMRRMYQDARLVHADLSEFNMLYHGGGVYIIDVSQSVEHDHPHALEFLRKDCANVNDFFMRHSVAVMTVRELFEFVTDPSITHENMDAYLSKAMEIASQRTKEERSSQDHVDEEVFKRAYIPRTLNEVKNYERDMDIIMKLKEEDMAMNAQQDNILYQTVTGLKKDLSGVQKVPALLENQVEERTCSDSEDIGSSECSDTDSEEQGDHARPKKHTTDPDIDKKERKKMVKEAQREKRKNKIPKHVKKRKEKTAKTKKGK
# Summary of the method: as §1
# [7] = molecular target: T7, scanMAX Kinase assay panel (Homo sapiens, UniProt Q9UEW8); details: STK39; 1 uM; read-out: Percent Control (%)
# T7 construct: purchased DiscoverX
# Summary of the method: as §1
SMILES,remaining binding at 1 µM [1] [%],remaining binding at 1 µM [2] [%],remaining binding at 1 µM [3] [%],remaining binding at 1 µM [4] [%],remaining binding at 1 µM [5] [%],remaining binding at 1 µM [6] [%],remaining binding at 1 µM [7] [%]
"Cc1ccc(C(=O)Nc2ccc(CN3CCN(C)CC3)c(C(F)(F)F)c2)cc1C#Cc1cnc2c(Nc3cnn(C)c3)cccn12 [Example 1, 4-methyl-3-((8-((1-methyl-1H-pyrazol-4-yl)amino)imidazo[1,2-a]pyridin-3-yl)ethynyl)-N-(4-((4-methylpiperazin-1-yl)methyl)-3-(trifluoromethyl)phenyl)benzamide]",47,2,23,69,100,77,97
"Cc1cn(-c2cc(NC(=O)c3ccc(C)c(C#Cc4cnc5c(Nc6cnn(C)c6)cccn45)c3)cc(C(F)(F)F)c2)cn1 [Example 12, 4-methyl-N-(3-(4-methyl-1H-imidazol-1-yl)-5-(trifluoromethyl)phenyl)-3-((8-((1-methyl-1H-pyrazol-4-yl)amino)imidazo[1,2-a]pyridin-3-yl)ethynyl)benzamide]",95,1,81,98,86,91,87
Cc1ccc(NC(=O)C2(C(=O)Nc3ccc(F)cc3)CC2)cc1C#Cc1cnc2c(Nc3cnn(C(C)C)c3)cccn12 [Example 78],93,74,100,84,97,100,89
